According to ChEMBL document CHEMBL1795231, “Inhibitors of histone demethylases” (Bioorg Med Chem, 2011):

Key:
[1] = molecular target: Lysine-specific histone demethylase 1A (Homo sapiens, UniProt O60341)
[2] = molecular target: T1, Lysine-specific demethylase 4E (Homo sapiens, UniProt B2RXH2)
T1 sequence (B2RXH2 whole entry): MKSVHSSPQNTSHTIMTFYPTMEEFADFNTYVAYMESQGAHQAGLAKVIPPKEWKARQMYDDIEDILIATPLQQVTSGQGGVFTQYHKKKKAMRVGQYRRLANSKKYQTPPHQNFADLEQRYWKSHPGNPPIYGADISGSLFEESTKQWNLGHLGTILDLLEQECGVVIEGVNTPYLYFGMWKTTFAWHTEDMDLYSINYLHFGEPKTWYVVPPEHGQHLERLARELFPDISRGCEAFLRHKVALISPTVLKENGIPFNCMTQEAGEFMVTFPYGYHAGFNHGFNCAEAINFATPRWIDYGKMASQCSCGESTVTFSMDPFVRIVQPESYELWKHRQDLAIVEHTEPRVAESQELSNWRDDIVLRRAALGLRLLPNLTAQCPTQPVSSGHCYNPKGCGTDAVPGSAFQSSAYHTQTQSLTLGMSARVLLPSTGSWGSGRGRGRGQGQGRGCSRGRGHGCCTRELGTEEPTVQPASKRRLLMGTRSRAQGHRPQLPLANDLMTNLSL

[3] = molecular target: T1, Lysine-specific demethylase 4E; remark: listed apart in the source
[4] = molecular target: Hypoxia-inducible factor 1-alpha inhibitor (Homo sapiens, UniProt Q9NWT6); test: Inhibition of asparaginyl hydroxylase factor-inhibiting-HIF
Egl nine homolog 1 = Egl nine homolog 1 (Homo sapiens, UniProt Q9GZT9); test: Inhibition of human PHD2
[5] = molecular target: T1, Lysine-specific demethylase 4E; remark: listed apart in the source
[6] = molecular target: T1, Lysine-specific demethylase 4E; remark: listed apart in the source
[7] = molecular target: T1, Lysine-specific demethylase 4E; remark: listed apart in the source
[8] = molecular target: T1, Lysine-specific demethylase 4E; test: Uncompetitive inhibition of JMJD2E relative to alpha-ketoglutarate

Sequence of Hypoxia-inducible factor 1-alpha inhibitor (Q9NWT6 whole entry): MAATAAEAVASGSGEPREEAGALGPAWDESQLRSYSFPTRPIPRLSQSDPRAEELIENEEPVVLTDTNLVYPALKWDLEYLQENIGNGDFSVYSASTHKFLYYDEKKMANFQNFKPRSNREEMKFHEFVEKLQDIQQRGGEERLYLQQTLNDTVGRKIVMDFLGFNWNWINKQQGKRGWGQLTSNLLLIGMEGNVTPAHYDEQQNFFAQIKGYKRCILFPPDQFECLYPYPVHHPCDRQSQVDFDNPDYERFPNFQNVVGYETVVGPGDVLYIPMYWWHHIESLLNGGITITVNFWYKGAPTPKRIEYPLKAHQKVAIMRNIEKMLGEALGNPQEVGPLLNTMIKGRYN
Sequence of Egl nine homolog 1 (Q9GZT9 whole entry): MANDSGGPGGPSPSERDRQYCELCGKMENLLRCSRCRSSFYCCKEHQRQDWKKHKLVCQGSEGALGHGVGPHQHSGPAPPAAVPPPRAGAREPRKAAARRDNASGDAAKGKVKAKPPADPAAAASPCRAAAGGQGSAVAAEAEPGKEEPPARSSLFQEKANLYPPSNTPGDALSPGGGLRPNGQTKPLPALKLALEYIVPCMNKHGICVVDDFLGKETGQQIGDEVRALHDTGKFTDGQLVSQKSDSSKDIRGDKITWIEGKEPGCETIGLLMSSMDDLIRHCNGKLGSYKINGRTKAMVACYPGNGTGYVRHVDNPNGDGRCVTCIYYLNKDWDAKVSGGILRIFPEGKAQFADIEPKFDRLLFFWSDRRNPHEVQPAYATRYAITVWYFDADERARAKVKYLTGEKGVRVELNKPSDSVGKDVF

CC(C)COc1ccc(Cl)cc1C1CC1N (stereo not given)
IC50 [1]: 9 µM

O=C(O)C(=O)N[C@H](CSCc1ccccc1)C(=O)O
IC50 [2]: 200 µM

COc1ccccc1CSC[C@@H](NC(=O)C(=O)O)C(=O)O
IC50 [2]: 200 µM

O=C(NO)c1cccc(O)c1
IC50 [3]: 4.8 µM

O=C(O)C(=O)N[C@H](CCc1ccccc1)C(=O)O
Ki [4]: 83 µM
IC50 (Egl nine homolog 1): > 1000 µM

CC(C)(C)c1ccc(S(=O)(=O)Oc2ccc(C[C@@H](NC(=O)C(=O)O)C(=O)O)cc2)cc1
IC50 [2]: 5 µM

O=C(O)C(=O)N[C@H](Cc1ccc(OS(=O)(=O)c2ccc(F)cc2)cc1)C(=O)O
IC50 [2]: 5 µM

O=C(O)C(=O)N[C@H](Cc1ccc(OS(=O)(=O)c2ccc(Br)cc2)cc1)C(=O)O
IC50 [5]: 5.4 µM

O=c1cc(-c2ccccc2)oc2cc(O)c(O)c(O)c12 [BAICALEIN]
IC50 [6]: 3 µM
Ki [7]: 4.33 µM

C[C@@](Cc1ccc(O)c(O)c1)(NN)C(=O)O [CARBIDOPA]
Ki [8]: 1.98 µM

Oc1ccc(C2CNCCc3c2cc(O)c(O)c3Cl)cc1 (stereo not given) [FENOLDOPAM]
Ki [7]: 1.92 µM

CC1(C)CCC2=C(O1)c1ccccc1C(=O)C2=O [LAPACHONE]
IC50 [6]: 3 µM
Ki [7]: 3.55 µM
